For the experiment, the system named is P388 leukemia ip, CD2F1 mice, survival T/C. Briefly: NCI In Vivo Anticancer Drug Screen. Data for tumor model P388 Leukemia (intraperitoneal) in CD2F1 (CDF1) mice. As to conditions: endpoint: median survival time, higher = longer survival. Put shortly: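 Mice carrying the transplanted tumor received test compound or vehicle. Survival was recorded in each group, and the value is the treated-group measurement divided by that of the vehicle-treated control group.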

The mark [1] stands for this setting: dose: 50.0 mg/kg/injection, schedule: Q01DX005 (ip), vehicle: saline with Tween-80.
The mark [2] stands for this setting: dose: 100.0 mg/kg/injection, schedule: Q01DX005 (ip), vehicle: saline with Tween-80.
Where [3] appears, read: dose: 200.0 mg/kg/injection, schedule: Q01DX005 (ip), vehicle: saline with Tween-80.
The mark [4] stands for this setting: dose: 100.0 mg/kg/injection, schedule: Q01DX001 (ip), vehicle: saline with Tween-80.
The mark [5] stands for this setting: dose: 200.0 mg/kg/injection, schedule: Q01DX001 (ip), vehicle: saline with Tween-80.
[6] abbreviates: dose: 400.0 mg/kg/injection, schedule: Q01DX001 (ip), vehicle: saline with Tween-80.
Setting [7] is: dose: 50.0 mg/kg/injection, schedule: Q01DX005 (ip), vehicle: Klucel (hydroxypropylcellulose) (HPC).
Where [8] appears, read: dose: 100.0 mg/kg/injection, schedule: Q01DX005 (ip), vehicle: Klucel (hydroxypropylcellulose) (HPC).
Setting [9] is: dose: 200.0 mg/kg/injection, schedule: Q01DX005 (ip), vehicle: Klucel (hydroxypropylcellulose) (HPC).
[10] abbreviates: dose: 100.0 mg/kg/injection, schedule: Q01DX001 (ip), vehicle: Klucel (hydroxypropylcellulose) (HPC).
Where [11] appears, read: dose: 200.0 mg/kg/injection, schedule: Q01DX001 (ip), vehicle: Klucel (hydroxypropylcellulose) (HPC).
Setting [12] is: dose: 50.0 mg/kg/injection, schedule: Q01DX009 (ip), vehicle: saline with Tween-80.
The mark [13] stands for this setting: dose: 100.0 mg/kg/injection, schedule: Q01DX009 (ip), vehicle: saline with Tween-80.
Setting [14] is: dose: 50.0 mg/kg/injection, schedule: Q01DX009 (ip), vehicle: saline.
Setting [15] is: dose: 100.0 mg/kg/injection, schedule: Q01DX009 (ip), vehicle: saline.
Setting [16] is: dose: 200.0 mg/kg/injection, schedule: Q01DX009 (ip), vehicle: saline.
Where [17] appears, read: dose: 100.0 mg/kg/injection, schedule: Q04DX003 (ip), vehicle: Klucel (hydroxypropylcellulose) (HPC).
Where [18] appears, read: dose: 200.0 mg/kg/injection, schedule: Q04DX003 (ip), vehicle: Klucel (hydroxypropylcellulose) (HPC).
Where [19] appears, read: dose: 400.0 mg/kg/injection, schedule: Q04DX003 (ip), vehicle: Klucel (hydroxypropylcellulose) (HPC).
The mark [20] stands for this setting: dose: 50.0 mg/kg/injection, schedule: Q04DX003 (ip), vehicle: saline.
Setting [21] is: dose: 100.0 mg/kg/injection, schedule: Q04DX003 (ip), vehicle: saline.
Where [22] appears, read: dose: 50.0 mg/kg/injection, schedule: Q01DX001 (ip), vehicle: Klucel (hydroxypropylcellulose) (HPC).

Molecules are shown by their SMILES. Values joined by “and” are separate entries in the source; they are usually repeats but may differ in a detail not shown here. Equal entries are not always repeated. Toxic doses and inconclusive results are not listed.

As for `O=C(O)CNC(=O)C(Cc1c[nH]c2ccccc12)NC(=O)OCc1ccccc1` (stereo not given), the T/C reads like this: under setting [1], 95 % of control; under setting [2], 94 % of control; under setting [3], 91 % of control.
Consider `CC1(C)CCC23CCC4(C)C(CCC5C6(C)CCC(O)C(C)(C)C6CCC54C)C2C1OC3` (stereo not given), for which the T/C runs as follows: (dose: 50.0 mg/kg/injection, schedule: Q01DX009 (ip), vehicle: Klucel (hydroxypropylcellulose) (HPC)) 87 % of control; (dose: 100.0 mg/kg/injection, schedule: Q01DX009 (ip), vehicle: Klucel (hydroxypropylcellulose) (HPC)) 87 % of control; (dose: 200.0 mg/kg/injection, schedule: Q01DX009 (ip), vehicle: Klucel (hydroxypropylcellulose) (HPC)) 89 % of control.
Turning to `CSc1nc(SC)c2c(C)c(Br)[nH]c2n1`, the T/C is 94 % of control under setting [4], 94 % of control under setting [5] and 89 % of control under setting [6].
For the molecule `COc1ccc(N2C(=O)CC(c3cc(OC)c(OC)c(OC)c3)CC2=O)cc1`, the T/C by setting is: under setting [7], 94 % of control; under setting [8], 89 % of control; under setting [9], 90 % of control.
As to `O=C1/C(=C\c2ccccc2)C(NC2CCCCC2)c2ccccc21` (stereo not given), the T/C is 109 % of control (dose: 3.12 mg/kg/injection, schedule: Q01DX005 (ip), vehicle: Klucel (hydroxypropylcellulose) (HPC)); 100 % of control (dose: 6.25 mg/kg/injection, schedule: Q01DX005 (ip), vehicle: Klucel (hydroxypropylcellulose) (HPC)); 107 % of control (dose: 12.5 mg/kg/injection, schedule: Q01DX005 (ip), vehicle: Klucel (hydroxypropylcellulose) (HPC)); 107 % of control (dose: 25.0 mg/kg/injection, schedule: Q01DX005 (ip), vehicle: Klucel (hydroxypropylcellulose) (HPC)).
In the case of `Cc1ccc(S(=O)(=O)N/N=C/c2c(Cl)n(C(=O)c3ccccc3C)c3ccccc23)cc1`, the T/C is 97 % of control under setting [10]; 91 % of control under setting [11]; 89 % of control (dose: 400.0 mg/kg/injection, schedule: Q01DX001 (ip), vehicle: Klucel (hydroxypropylcellulose) (HPC)).
In the case of `CCOc1c(N=Nc2ccccc2C)c(-c2ccccc2)nn1C(N)=S`, the T/C is 90 % of control under setting [1], 88 % of control under setting [2] and 90 % of control under setting [3].
`O=C(O)CCSCCCCCCCCCCSCCC(=O)O`: the T/C is 98 % of control under setting [7], 93 % of control under setting [8] and 86 % of control under setting [9].
For `O=[N+]([O-])c1ccc(SSc2ccc([N+](=O)[O-])cn2)nc1`, the T/C was 104 % of control (dose: 25.0 mg/kg/injection, schedule: Q01DX009 (ip), vehicle: saline with Tween-80); 86 % of control under setting [12]; 95 % of control under setting [13].
As for `CCOC([O-])=N/C(C)=N/[n+]1ccccc1C`, the T/C is 107 % of control under setting [14], 104 % of control under setting [15] and 107 % of control under setting [16].
Turning to `CCOC(=Nc1ccc(F)cc1)SC(c1ccccc1)(c1ccccc1)c1ccccc1`, the T/C is 110 % of control under setting [1], 104 % of control under setting [2] and 99 % of control under setting [3].
`Cc1nc(C)c(Cl)c(Cc2ncnc3ccccc23)n1`: the T/C is 106 % of control (dose: 25.0 mg/kg/injection, schedule: Q01DX005 (ip), vehicle: saline with Tween-80); 96 % of control under setting [1]; 102 % of control under setting [2].
`O=c1[nH]ccc2nc(-c3ccccc3)cn12`: the T/C was 106 % of control under setting [17], 104 % of control under setting [18] and 105 % of control under setting [19].
On to `CN(C)CC(Cl)CCl` (stereo not given), for which the T/C was 109 % of control under setting [20], 109 % of control under setting [21] and 195 % of control under setting [16].
`CN1C(=O)c2ccc3c4ccc5c6c(ccc(c7ccc(c2c37)C1=O)c64)C(=O)N(c1ccccc1)C5=O`: the T/C is 87 % of control under setting [7], 86 % of control under setting [8] and 86 % of control under setting [9].
As for `CC(=O)CC1(O)C(=O)C(C(C)(C)C)=CC2(C(C)(C)C)OC12` (stereo not given), the T/C reads like this: under setting [14], 102 % of control; under setting [15], 95 % of control; under setting [16], 95 % of control.
Regarding `CCOc1ccc(C(C)c2cc3c(cc2OC)OCO3)cc1C` (stereo not given), the T/C under setting [7] was 109 % of control and 113 % of control; the T/C under setting [8] was 108 % of control and 118 % of control; the T/C under setting [9] is 116 % of control; the T/C (dose: 400.0 mg/kg/injection, schedule: Q01DX005 (ip), vehicle: Klucel (hydroxypropylcellulose) (HPC)) is 165 % of control.
As to `C[n+]1ccccc1NC(=O)c1ccccc1`, the T/C (dose: 61.5 mg/kg/injection, schedule: Q01DX001 (ip), vehicle: saline) was 100 % of control; the T/C (dose: 123.0 mg/kg/injection, schedule: Q01DX001 (ip), vehicle: saline) is 104 % of control; the T/C (dose: 246.0 mg/kg/injection, schedule: Q01DX001 (ip), vehicle: saline) is 104 % of control.
Turning to `CCC12CN3CCc4c([nH]c5ccccc45)C(C(=O)OC)(c4cc5c(cc4OC)N(C)C4C(O)(C(=O)OC)C(OC(C)=O)C6(CC)C=CCN7CCC54C76)CC(C3=O)C1O2` (stereo not given), the T/C is, setting by setting: (dose: 4.0 mg/kg/injection, schedule: Q01DX001 (ip), vehicle: water) 118 % of control; (dose: 32.0 mg/kg/injection, schedule: Q01DX001 (ip), vehicle: water) 116 % of control; (dose: 64.0 mg/kg/injection, schedule: Q01DX001 (ip), vehicle: water) 169 % of control.
For `O=S1(=O)CCCCC1`, the T/C under setting [20] was 100 % of control; the T/C under setting [21] was 100 % of control; the T/C (dose: 200.0 mg/kg/injection, schedule: Q04DX003 (ip), vehicle: saline) was 110 % of control.
In the case of `CCOP(O)(=S)OCC.[Y]`, the T/C was 90 % of control under setting [22], 87 % of control under setting [10] and 95 % of control under setting [11].
Regarding `N#C[C@H]1C[C@@H](c2ccc([N+](=O)[O-])cc2)N(c2ccc(C=O)cc2)O1`, the T/C under setting [4] was 98 % of control, the T/C under setting [5] is 98 % of control and the T/C under setting [6] is 99 % of control.
Consider `CCOC(=O)C1(C)OC1c1ccc([N+](=O)[O-])cc1` (stereo not given), for which the T/C by setting is: under setting [17], 97 % of control; under setting [18], 94 % of control; under setting [19], 100 % of control.
Regarding `CC(=Nc1ccccc1)C1=C(O)C(CC(C)C)NC1=O` (stereo not given), the T/C under setting [12] is 103 % of control; the T/C under setting [13] was 99 % of control; the T/C (dose: 200.0 mg/kg/injection, schedule: Q01DX009 (ip), vehicle: saline with Tween-80) was 100 % of control; the T/C (dose: 400.0 mg/kg/injection, schedule: Q01DX009 (ip), vehicle: saline with Tween-80) was 110 % of control.
Take `CCNC(=S)NN`: the T/C by setting is: (dose: 3.13 mg/kg/injection, schedule: Q01DX009 (ip), vehicle: saline) 106 % of control; (dose: 6.25 mg/kg/injection, schedule: Q01DX009 (ip), vehicle: saline) 114 % of control; (dose: 12.5 mg/kg/injection, schedule: Q01DX009 (ip), vehicle: saline) 105 % of control.
`O=[N+]([O-])c1ccc(N/N=C\c2cccc3c(/C=N/Nc4ccc([N+](=O)[O-])cc4[N+](=O)[O-])c(Cl)n(-c4ccccc4)c23)c([N+](=O)[O-])c1`: the T/C runs as follows: (dose: 25.0 mg/kg/injection, schedule: Q01DX001 (ip), vehicle: Klucel (hydroxypropylcellulose) (HPC)) 102 % of control; under setting [22], 95 % of control; under setting [10], 93 % of control.
For the molecule `C/C1=C\C(=O)OCC23CCC4(C)OC4C2OC2CC(OC(=O)/C=C/C=C/C(C(C)O)OCC1O)C3(C)C21CO1` (stereo not given), the T/C reads like this: (dose: 1.25 mg/kg/injection, schedule: Q01DX005 (ip), vehicle: saline + alcohol) 121 % of control and 123 % of control; (dose: 5.0 mg/kg/injection, schedule: Q01DX005 (ip), vehicle: saline + alcohol) 124 % of control; (dose: 10.0 mg/kg/injection, schedule: Q01DX005 (ip), vehicle: saline + alcohol) 150 % of control; (dose: 20.0 mg/kg/injection, schedule: Q01DX005 (ip), vehicle: saline + alcohol) 159 % of control.
